Assay results published in ChEMBL document CHEMBL1201862, “PubChem BioAssay data set” (2004).
Calls of active or inactive are those of the source. Cut-off read from the data, not from the text of the source, for most assays here: actives have a measured EC50 and inactives only a lower limit.

How the values were obtained:
[1] = luciferase reporter signal suppression in cells – H4 neuroglioma cells, luminescence, dose response (AID 1990); type: functional, cell-based
[2] = Luminescence Cell-Based Dose Response HTS to Identify Inhibitors of 5'UTR Stem-Loop Driven Prion Protein mRNA Translation in H4 Neuroglioblastoma Cells. [Related pubchem assays: 1827 (Project Summary), 1813 (Primary HTS)]; type: functional
[3] = alpha-synuclein stem-loop luciferase translation blockers – H4 neuroglioma cells, luminescence, confirmation (AID 1988); type: functional, cell-based
[4] = biological target: T1, Heat shock factor protein 1 (Mus musculus, UniProt P38532); assay: enhancement of HSF1-driven luciferase signal – cell-based, NIH3T3, luminescence, dose retest, confirmation (AID 435004); type: functional;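 note: stress induced by proteasome inhibitor MG132 added 30 min after compound; luciferase reporter driven by HSF1 response element in NIH3T3 cells; actives raise luminescence as potentiators of the MG132 stress response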
T1 sequence (P38532 whole entry): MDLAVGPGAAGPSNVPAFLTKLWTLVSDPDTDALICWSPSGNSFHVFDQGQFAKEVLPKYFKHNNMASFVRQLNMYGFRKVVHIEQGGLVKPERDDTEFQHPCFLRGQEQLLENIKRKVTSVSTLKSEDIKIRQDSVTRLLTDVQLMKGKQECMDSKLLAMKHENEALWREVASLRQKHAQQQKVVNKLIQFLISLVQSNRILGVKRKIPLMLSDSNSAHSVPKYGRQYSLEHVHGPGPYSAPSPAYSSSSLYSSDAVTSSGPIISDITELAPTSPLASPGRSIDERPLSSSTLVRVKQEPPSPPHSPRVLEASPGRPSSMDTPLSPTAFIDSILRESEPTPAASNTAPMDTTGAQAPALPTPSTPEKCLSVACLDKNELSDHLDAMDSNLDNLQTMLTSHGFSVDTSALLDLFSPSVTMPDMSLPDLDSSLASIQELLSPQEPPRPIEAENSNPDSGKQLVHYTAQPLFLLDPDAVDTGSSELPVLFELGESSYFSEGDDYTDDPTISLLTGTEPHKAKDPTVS

[5] = biological target: Cytochrome P450 3A4 (Homo sapiens, UniProt P08684);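 note: CYP3A4 tested as one member of a cytochrome P450 panel screen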
[6] = system: H9c2; assay: cells; type: functional, cell-based; details: Rattus norvegicus, H9c2, Myocardium;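 note: confirmatory concentration-response retest of ultra-high-throughput screening hits for modulation of myocardial damage; cell death induced by hydrogen peroxide oxidative stress; compound pretreatment for 60 min then peroxide exposure for 2 h; potency is for protecting the cells against peroxide damage rather than for killing them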
[7] = biological target: T1, Heat shock factor protein 1; assay: decrease of HSF1-responsive luciferase luminescence – cell-based, NIH3T3, dose retest, confirmation (AID 2382); type: functional;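 note: NIH3T3 fibroblasts with HSF1-driven luciferase reporter stressed by proteasome inhibitor MG132; luminescence from HSF1-driven luciferase expression after 8 hours of MG132 stress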
[8] = Luminescence Cell-Based Dose Response HTS to Identify Activators of Luciferase Translation or Activity in H4 […] Cells. [Related pubchem assays: 1829 (Project Summary), 1814 (Primary HTS)]; type: functional
[9] = Trypanosoma cruzi growth suppression in host cells – NIH3T3 host cells, beta-gal luminescence, confirmation (AID 2044); type: functional, cell-based;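 note: intracellular parasites grown in NIH/3T3 mouse fibroblasts as host cells; luminescent beta-galactosidase reporter signal from transgenic T. cruzi replicating inside host cells; inhibitors lower the luminescence signal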
[10] = NIH3T3 cell viability loss – ATP luminescence, mouse fibroblasts, counter-screen, dose response (AID 2010); type: functional, cell-based;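 note: cells exposed to compound for about 90 hours before reading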
[11] = biological target: Paired box protein Pax-8 (Homo sapiens, UniProt Q06710); assay: PAX8 transcriptional activity inhibition in RMG-I – RMG-I cells, luciferase, cherry-pick, dose response (AID 687027); type: functional, cell-based;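 note: luciferase reporter driven by Pax8 target thyroperoxidase promoter measured by SteadyGlo luminescence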
[12] = system: Streptococcus sp. 'group A'; assay: Streptococcus pyogenes SK(-)GAS viability under kanamycin – luminescence, BacTiterGlo, confirmation, counter-screen for streptokinase expression inhibitor project, dose response (AID 1900); type: functional, organism-based
[13] = biological target: T2, Streptokinase A (Streptococcus pyogenes serotype M1, UniProt P10520); assay: viability-normalized secreted streptokinase activity reduction – plasminogen activation absorbance, OD405, dose response (AID 1914); type: functional, Streptococcus pyogenes M1 GAS;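 note: secreted streptokinase activity via plasminogen activation per viability signal from cell pellet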
T2 sequence (P10520 whole entry): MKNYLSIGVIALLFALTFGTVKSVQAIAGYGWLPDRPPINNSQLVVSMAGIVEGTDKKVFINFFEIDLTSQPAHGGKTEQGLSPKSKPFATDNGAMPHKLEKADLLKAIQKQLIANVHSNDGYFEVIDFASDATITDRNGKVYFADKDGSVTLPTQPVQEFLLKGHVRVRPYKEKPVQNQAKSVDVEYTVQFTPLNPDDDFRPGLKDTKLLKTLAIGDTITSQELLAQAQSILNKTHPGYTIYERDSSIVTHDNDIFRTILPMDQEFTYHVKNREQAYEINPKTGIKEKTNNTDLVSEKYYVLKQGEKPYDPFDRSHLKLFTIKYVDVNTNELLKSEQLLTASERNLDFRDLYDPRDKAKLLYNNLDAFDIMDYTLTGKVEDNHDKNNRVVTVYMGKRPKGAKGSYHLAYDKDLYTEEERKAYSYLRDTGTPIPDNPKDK

[14] = system: Streptococcus; assay: GAS UMAA2166 growth inhibition – luminescence, BacTiterGlo, counter-screen for streptokinase expression inhibitor project, dose response (AID 1915); type: functional, organism-based;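 note: potency for reduction of bacterial viability or growth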
[15] = Luminescence Cell-Based Dose Retest to Confirm Inhibitors of Cancer Stem Cells. [Related pubchem assays (depositor defined):AID2717, AID2721]; type: functional, Homo sapiens; details: Homo sapiens
[16] = system: INS1; assay: INS-1E survival protection against cytokine death – cell-based, luminescence, retest, dose response (AID 449756); type: functional; details: Rattus norvegicus;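 note: cell death triggered by IL-1 beta plus TNF-alpha plus IFN-gamma mixture; protective hits raise ATP signal compared with cytokine alone wells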

Sequence of Paired box protein Pax-8 (Q06710 whole entry): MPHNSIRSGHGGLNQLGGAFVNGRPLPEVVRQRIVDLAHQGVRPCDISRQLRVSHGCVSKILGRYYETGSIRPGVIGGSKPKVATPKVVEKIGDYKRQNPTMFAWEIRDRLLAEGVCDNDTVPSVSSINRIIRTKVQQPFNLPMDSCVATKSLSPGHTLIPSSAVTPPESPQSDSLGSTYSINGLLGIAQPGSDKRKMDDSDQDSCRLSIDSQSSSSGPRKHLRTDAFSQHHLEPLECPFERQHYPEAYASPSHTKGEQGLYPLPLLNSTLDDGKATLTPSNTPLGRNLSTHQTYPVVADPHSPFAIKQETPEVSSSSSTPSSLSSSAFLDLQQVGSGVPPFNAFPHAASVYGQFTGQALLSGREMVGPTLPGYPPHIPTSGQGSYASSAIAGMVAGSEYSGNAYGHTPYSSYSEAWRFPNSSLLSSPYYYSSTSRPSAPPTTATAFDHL
Sequence of Cytochrome P450 3A4 (P08684 whole entry): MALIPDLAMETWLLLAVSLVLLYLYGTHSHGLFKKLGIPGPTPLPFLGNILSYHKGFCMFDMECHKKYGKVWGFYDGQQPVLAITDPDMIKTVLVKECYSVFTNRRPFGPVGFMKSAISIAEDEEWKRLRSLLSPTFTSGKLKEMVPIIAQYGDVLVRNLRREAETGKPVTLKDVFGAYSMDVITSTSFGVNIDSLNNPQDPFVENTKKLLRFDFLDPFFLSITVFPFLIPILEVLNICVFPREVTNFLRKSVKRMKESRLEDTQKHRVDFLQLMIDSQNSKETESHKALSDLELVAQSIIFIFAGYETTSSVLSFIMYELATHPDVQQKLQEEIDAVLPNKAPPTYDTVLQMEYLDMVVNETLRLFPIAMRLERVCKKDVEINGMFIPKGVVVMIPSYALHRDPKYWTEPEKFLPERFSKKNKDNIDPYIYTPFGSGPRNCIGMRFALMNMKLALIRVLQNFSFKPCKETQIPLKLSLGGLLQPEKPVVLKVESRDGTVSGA

Question: With `Cn1c(C[S+]([O-])Cc2c(Cl)cccc2Cl)nnc1SCc1ccc(Cl)cc1` (stereo unspecified) as the compound, how does the EC50 [1] read?
Answer: > 120 µM (not active)

Question: And the EC50 [2]?
Answer: > 120 µM (not active)

Question: And the EC50 [3]?
Answer: 13.8 µM (active)

Question: With `CS(=O)(=O)c1nc(-c2ccccc2)cc(-c2ccccc2)c1C#N` as the compound, how does the EC50 [4] read?
Answer: 16.7 µM (active)

Question: And the AC50 [5]?
Answer: 22.4 µM (inconclusive)

Question: Which IC50 [6] does the source give for `COc1ccc(Nc2nc(C(=O)N3CCc4cc(OC)c(OC)cc4C3)cs2)cc1` here?
Answer: > 79 µM (inactive)

Question: Which EC50 [7] does the source give for `N#C/C(=C/c1ccc(Br)o1)C(N)=O` here?
Answer: > 195 µM (not active)

Question: Which results are given for `O=C(COC(=O)c1cccs1)c1ccc2c(c1)OCCO2`?
Answer: EC50 [8]: < 0.1 µM (active); EC50 [7]: 0.213 µM (active)

Question: With `CCOc1ccc(S(=O)(=O)c2c(C(=O)c3ccccc3)cnc3cc4c(cc23)OCCO4)cc1` as the compound, how does the EC50 [9] read?
Answer: 2.43 µM (active)

Question: What about the EC50 [10] of the same compound?
Answer: 17.8 µM (active)

Question: And the EC50 [4]?
Answer: > 260 µM (inactive)

Question: For `CN(CC(=O)Nc1cccc(F)c1)C(=O)CCc1nc(O)c2ccccc2n1`, which IC50 [6] is on record?
Answer: > 79 µM (inactive)

Question: Which IC50 [6] does the source give for `COC(=O)c1ccccc1NC(=O)/C=C/c1cc(OC)c(OC)c(OC)c1` here?
Answer: 10.5 µM (active)

Question: Which EC50 [4] does the source give for `COc1ccc2c(c1)-c1c(sn(-c3ccccc3)c1=S)C(C)(C)N2` here?
Answer: > 260 µM (inactive)

Question: With `CC(=O)NCc1ccc(-c2csc(NC(=O)CCc3nc(O)c4ccccc4n3)n2)s1` as the compound, how does the IC50 [6] read?
Answer: > 79 µM (inactive)

Question: Which AC50 [11] does the source give for `CC(C)OCCCNC(=O)c1cccc(NC(=O)c2ccccc2)c1` here?
Answer: 41.6 µM (active)

Question: Which IC50 [6] does the source give for `O=C(Nc1ccc2c(c1)nc(O)c1ccccc12)C(F)(F)F` here?
Answer: > 79 µM (inactive)

Question: For `COc1ccc(-c2cc(C(F)(F)F)n3nc(C(=O)N4CCN(C(=O)c5ccco5)CC4)cc3n2)cc1`, which IC50 [6] is on record?
Answer: 13 µM (active)

Question: With `CC(C)(C)OC(=O)C[C@H]1C/C=C\C[C@H](CC(=O)N[C@H](CO)Cc2ccccc2)C(=O)N[C@H](Cc2ccccc2)COC1=O` as the compound, how does the IC50 [6] read?
Answer: > 79 µM (inactive)

Question: With `O=C(NCCN1CCN(C(=O)c2ccc(Br)cc2)CC1)c1ccc(Br)cc1` as the compound, how does the EC50 [4] read?
Answer: > 260 µM (inactive)

Question: With `Cc1ccc(NC(=O)c2[nH]cnc2C(=O)NCCCCCCNC(=O)c2nc[nH]c2C(=O)Nc2ccc(C)cc2)cc1` as the compound, how does the IC50 [6] read?
Answer: > 79 µM (inactive)

Question: Which EC50 [4] does the source give for `CC(C)NC(=O)CN(C(=O)CCC(=O)Nc1nccs1)c1ccc2c(c1)OCO2` here?
Answer: > 260 µM (inactive)

Question: For `CC(C)(C)OC(=O)C[C@@H]1C/C=C\C[C@@H](CC(=O)N[C@@H](CO)Cc2ccccc2)C(=O)NC[C@@H](c2ccccc2)OC1=O`, which IC50 [6] is on record?
Answer: 11.1 µM (active)

Question: With `NS(=O)(=O)c1ccc(NC(=O)CN2C(=O)CCC2=O)cc1` as the compound, how does the EC50 [4] read?
Answer: > 260 µM (inactive)

Question: Which AC50 [11] does the source give for `CSCCC(c1nnnn1-c1ccc2c(c1)OCCO2)N1CCC(n2c(O)nc3ccccc32)CC1` (stereo unspecified) here?
Answer: 2.14 µM (active)

Question: With `Sc1nnc(C2CCCCC2)n1/N=C/c1cccc(Cl)c1Cl` as the compound, how does the EC50 [1] read?
Answer: 15.2 µM (active)

Question: What about the EC50 [12] of the same compound?
Answer: 4.7 µM (active)

Question: And the EC50 [2]?
Answer: > 120 µM (not active)

Question: And the EC50 [3]?
Answer: 15.1 µM (active)

Question: What about the EC50 [13] of the same compound?
Answer: > 150 µM (not active)

Question: What about the EC50 [14] of the same compound?
Answer: 7.5 µM (active)

Question: Which EC50 [1] does the source give for `COc1ccc(/C=N/NC(=O)c2ccncc2)cc1COc1ccc(NC(C)=O)cc1` here?
Answer: > 120 µM (not active)

Question: And the EC50 [2]?
Answer: > 120 µM (not active)

Question: And the EC50 [3]?
Answer: > 120 µM (not active)

Question: For `C[C@@H]1CCCCO[C@H](CN(C)CC2CCCCC2)[C@H](C)CN([C@H](C)CO)C(=O)c2cc(NS(=O)(=O)c3ccc(Cl)cc3)ccc2O1`, which AC50 [11] is on record?
Answer: 5.21 µM (active)

Question: With `CC(C)(C)c1ccc(/C=N/N2C(=O)CSC2=S)cc1` as the compound, how does the EC50 [7] read?
Answer: 44.1 µM (active)

Question: Which EC50 [4] does the source give for `C/C(CCc1oc2c(Br)cc(Br)cc2c1-c1ccc(C)o1)=N\O` here?
Answer: > 260 µM (inactive)

Question: For `CCCCNC(=O)c1ccc(Cn2c(=S)[nH]c3c([nH]c4ccc(OC)cc43)c2=O)cc1`, which EC50 [7] is on record?
Answer: 3.02 µM (active)

Question: What about the AC50 [15] of the same compound?
Answer: 0.687 µM (active)

Question: What about the AC50 [16] of the same compound?
Answer: 5.01 µM (active)
